Values of other authors as cited in patent publication US20260345609A1, “METHODS FOR PROMOTING PERSISTENCE OF CELL THERAPY” (Legend Biotech Ireland Limited, priority 2022, published 2026).

conditions: Short infusion; cited from earlier work

| SMILES | Half-life |
| --- | --- |
| Nc1ccn([C@@H]2O[C@H](CO)[C@@H](O)C2(F)F)c(=O)n1 [Gemcitabine] | Short infusion: 32-94 min; |

same assay, conditions: human, in vivo; cited from earlier work

| SMILES | Half-life |
| --- | --- |
| Nc1nc(F)nc2c1ncn2[C@@H]1O[C@H](CO)[C@@H](O)[C@@H]1O [fludarabine] | 20 h |
| CN(C)/N=N/c1[nH]cnc1C(N)=O [Dacarbazine] | 5 h |
| Nc1nc(Cl)nc2c1ncn2[C@H]1C[C@H](O)[C@@H](CO)O1 [Cladribine] | 10 h |
| N[C@@H]1CCCC[C@H]1N.[Pt+2] [Oxaliplatin] | 0.167 to 0.417 h |
| O=P1(N(CCCl)CCCl)NCCCO1 (centres unmarked) [cyclophosphamide] | 3 to 12 h |
| CC(=O)O[C@H]1C(=O)[C@@]2(C)[C@H]([C@H](OC(=O)c3ccccc3)[C@]3(O)C[C@H](OC(=O)[C@H](O)[C@@H](NC(=O)c4ccccc4)c4ccccc4)C(C)=C1C3(C)C)[C@]1(OC(C)=O)CO[C@@H]1C[C@@H]2O [Paclitaxel] | 5.8 h |
| O=c1[nH]cc(F)c(=O)[nH]1 [Fluorouracil] | 0.267 h |
| COc1cccc2c1C(=O)c1c(O)c3c(c(O)c1C2=O)C[C@@](O)(C(=O)CO)C[C@@H]3O[C@H]1C[C@H](N)[C@H](O)[C@H](C)O1 [Doxorubicin] | 1 to 3 h |
| CC[C@]1(O)C[C@H]2CN(CCc3c([nH]c4ccccc34)[C@@](C(=O)OC)(c3cc4c(cc3OC)N(C)[C@H]3[C@@](O)(C(=O)OC)[C@H](OC(C)=O)[C@]5(CC)C=CCN6CC[C@]43[C@@H]65)C2)C1 [vinblastine] | 24.8 h |

same assay, conditions: long infusion; cited from earlier work

| SMILES | Half-life |
| --- | --- |
| Nc1ccn([C@@H]2O[C@H](CO)[C@@H](O)C2(F)F)c(=O)n1 [Gemcitabine] | long infusion: 245-638 min |
